Tests used:
[1] = Systemic pharmacokinetics in SD rats (UHPLC-MS); type: in vivo, Sprague-Dawley (SD) rats; settings: SD rats, oral 25 mg/kg
Protocol: A Dionex Ultimate 3000 RSLC system (Thermofisher) combined with an Accucore aQ C18 column (150 mm×2.1 mm, 2.6 μm, Thermo fisher) was used in the sample separation process. The separation speed was set at […] for all gradients. 1 μL of injection volume and a constant temperature of (25 ± 1°C were set for the column. The eluents were A, water with 0.1% formic acid (v/v) and B, methanol; the gradient program was as follows: 0–6 min, 8–40% B; 6–8 min, 40–100% B; 8–10 min, 100% B; 10–11 min, 100–8% B; 11–13 min, 8% B.
Heated electro-spray ionization (HE-SI) was paired with a Q-Orbitrap MS in the MS analysis. The flow rate of auxiliary, sheath and sweep gas was set at 35, 10, and 1 (arbitrary unit), respectively. A full MS-ddMS^2 mode was used to perform the analysis. The damping gas in the C-trap and nitrogen was used to stabilize the spraying. Temperatures of 350°C and 320°C were set and kept for the auxiliary gas heater and capillary. Under negative mode, 3.0 kV was adopted for the spray voltage, 60 V was used for the S-lens RF level, 50 ms was used for the maximum injection time, and 3.0 ^e6 was set as the automatic gain control target. Full MS-ddMS^2 scan ranged from 150.0000 to 800.0000 m/z. Precise molecular weight […] was used for qualitative analysis, the corresponding peak area was used for quantitative analysis, and MS^2 fragments were used for further qualitative analysis.
A cross-over design was employed with male SD rats (n = 7) to evaluate in vivo pharmacokinetics. The rats were subjected to fasting for one night before each administration and were fed 4 hours after administration. ABZ was administered by gavage (25 mg/kg). Blood was collected under isoflurane anesthesia at a flow rate of 2.0 mL/min. At 0.25, 0.5, 1, 2, 2.5, 3, 4, 6, 8, 12, and 24 hours after administration, 200–500 μL blood was collected from the orbital venous plexus and centrifuged at 13000 rpm for 5 min. The upper plasma was stored at—80°C for testing.
Plasma samples were thawed at room temperature, and 100 μL was added to an equal volume of mass spectrometry grade methanol, vortexed for 1 min, and centrifuged again at 13000 rpm for 5 min. 100 μL of the supernatant were added to 100 μL of 200 ng/mL mebendazole IS solution, vortexed for 1 min, and centrifuged again at 13000 rpm for 5 min. The resulting sample was injected by UHPLC-HR-ESI-MS with an injection volume of 1 μL. The pharmacokinetic study of SD rats was performed according to the standards recommended by the "Guidelines for the Care and Use of Laboratory Animals" (Animal Laboratory Resources Institute, 1995) and was approved by the Institutional Animal Care and Use Committee of Qinghai University.

[2] = test system: protoscolex (PSCs); assay: Detection of protoscolex mortality / survival rate in vitro (trypan blue); type: cell-based, E. multilocularis; settings: 7 days; ABZ 10 μg/mL, ABZ-SO 10 μg/mL, ABZ-BA 13.45, 26.9, 53.8 μg/mL; liver homogenate + 0.2% DMSO; n = 3
Excerpt: (§1) Protoscoleces (PSCs) from E. multilocularis were collected aseptically from alveolar echinococcosis obtained from the abdominal cavity of gerbils in Qinghai Research Key Laboratory for Echinococcosis, China. The specific operation steps were as follows: (1) dissect the successfully preserved Echinococcus protoscoleces gerbil model, isolate cysts and wash the residual liver tissue and blood with sterile Penicillin-Streptomycin solution (penicillin (1500 U/ mL) + streptomycin (1000 U/ mL)). (2) Place the clean cysts in sterile glassware, cut them into a slurry, filter the original head section with sterile gauze, and rinse them with Penicillin-Streptomycin solution 3 times. (3) Slightly rotate and shake the filtrate, absorb the suspended connective tissue, impurities, inactivated PSCs, and excess Penicillin-Streptomycin solution in the upper layer, repeat several times and finally concentrate the pure PSCs into the test tube. Viability was assessed by muscular movement (evaluated under an optical microscope), the motility of flame cells, and the exclusion test with methylene blue. The PSCs were incubated in an RPMI 1640 medium containing 0.20 mg/mL liver homogenous serous, 100 U/mL penicillin, 100 μg/mL streptomycin and 10% calf serum at 37°C in a 5% CO2 atmosphere at a concentration of (1000–2000) PSCs/mL.
(§2) The PSCs were divided into blank control groups (Groups 1 and 2), positive control groups (Groups 3 and 4), and experimental groups (Groups 5 to 7). Group 1 was RPMI-1640 medium with 0.20 mg/mL liver homogenate; Group 2 was 0.2% DMSO medium with 0.2% DMSO; Group 3 was RPMI-1640 medium with 0.20 mg/mL liver homogenate and 0.2% DMSO, containing 10 μg/mL Albendazole; Group 4 was RPMI-1640 medium with 0.20 mg/mL liver homogenate and 0.2% DMSO, containing 10 μg/mL albendazole sulfoxide; Groups 5–7 were RPMI-1640 medium with 0.20 mg/mL liver homogenate and 0.2% DMSO, containing 13.45, 26.9 and 53.8 μg/mL ABZ-BA, with effective ABZ concentrations of 5, 10 and 20 μg/mL, respectively. The culture medium and drug were changed every 3 days for one week. PSCs samples (10 μL) were collected every day and stained with 0.4% trypan blue staining solution, observed under an inverted microscope, and photographed to record PSC mortality.

[3] = test system: protoscolex (PSCs); assay: Protoscolex microstructure by optical microscope and SEM; type: cell-based, E. multilocularis; settings: 5 days after treatment, 10 μg/mL
Excerpt: as §1, §2
For ultrastructural studies, 200 μL PSCs were taken from each group 5 days after treatment and fixed with 4% glutaraldehyde in sodium cacodylate buffer at 4°C for 72 hours. Samples were dehydrated by continuous incubation in increasing concentrations of ethanol (50–100%), and ethanol was removed by supercritical extraction. They were then sputter-coated with gold (100 Å thick) and examined on an FEI Quanta 200 scanning electron microscope operating at 20 kV.

detection in plasma 24 hours after administration [1]	shape of the drug time curve [1]	Frel (relative bioavailability) = AUCAbz(0–24)/AUCABZ (0–24) ([1]; n = 7) [%]	SMILES	inhibitory effect on PSC survival rate [2]	PSC morphology under the SEM [3]	PSC morphology under the optical microscope (OM) [3]	mortality of PSCs ([3]; vs blank groups)
still detected	double-peak	2613	CCCSc1ccc2[nH]c(NC(=O)OC)nc2c1 [Abz]				
			CCC[S+]([O-])c1ccc2[nH]c(NC(=O)OC)nc2c1 (stereo not shown) [ABZ-SO, albendazole sulfoxide]	time and concentration-dependent inhibitory effects	elongated and curled up	became vacuolar and transparent	significantly higher than in the blank groups

— article PMC9838834, “Improvement of Antialveolar echinococcosis efficacy of novel Albendazole-Bile acids Derivatives with Enhanced Oral Bioavailability” (PLOS Neglected Tropical Diseases, 2023)
